Test results published in US6433014B1, “Compounds consisting in particular of effectors of the central nervous system receptors sensitive excitatory amino acids, preparation and biological applications” (Centre National de la Recherche Scientifique (C.N.R.S.), priority 1997, dated 2002).

What was measured:
mGluR1a = molecular target: T1, mGluR1a (Rattus norvegicus, UniProt P23385); assay: accumulation of inositol phosphates (phospholipase C activation) in transfected HEK 293 cells expressing mGluR1a; assay type: cell-based
T1 construct: expressed in transfected cells; host or cells: HEK 293
Description: (§1) For this purpose, the activation of phospholipase C was measured (accumulation of inositol phosphates).
(§2) The HEK 293 cells are cultured in a Dulbecco's modified Eagle medium (DMEM, Gibco BRL) to which 10% of foetal calf serum has been added, and transfected by electroporation as previously described by Gomeza et al., Molecular Pharmacology, 1996, 50:923-930 (1996).
(§3) The electroporation is carried out in a total volume of 300 μl with 10 μg of supporting DNA, plasmid DNA containing mGluR1a (0.3 μg), mGluR2 (2 μg) or mGluR4a (5 μg) and 10^7 cells.
(§4) Determination of the accumulation of inositol phosphates (IP).
(§5) The determination of the accumulation of IP in transfected cells is carried out as described by Gomeza after labelling the cells for approximately 14 hours with [^3H]-myo-inositol (23.4 Ci/mol, NEN, France).
(§6) Stimulation is carried out for 30 minutes in a medium containing 10 mM LiCl in the presence of the drugs tested. The formation of the basic IP is determined after 30 minutes of incubation in the presence of 10 mM LiCl and pyruvate glutamate transaminase (1 U/ml) degrading the glutamate (Glu) and 2 mM of pyruvate in order to avoid the possible effects of Glu released by the cells. The results are expressed in the quantity of IP product with respect to the radioactivity present in the membranes.

mGluR2 = molecular target: T2, mGluR2 (Rattus norvegicus, UniProt P31421); assay: accumulation of inositol phosphates in transfected HEK 293 cells expressing mGluR2 co-expressed with chimeric G protein; assay type: cell-based
T2 construct: expressed in transfected cells; host or cells: HEK 293
Description: as §1, §2, §3
In order to allow activation of the phospholipase C by mGluR2 and mGluR4a, which effect is easier to measure than the inhibition of the production of cAMP, these receptors are co-expressed with chimeric G, Gqo5 and Gqi9 proteins, as described by Gomeza. The pharmacological profiles of these 2 receptors determined according to this method, have already been described as identical to those characterized by measuring the inhibition of the formation of cAMP.
as §4, §5, §6

mGluR4a = molecular target: T3, mGluR4a (Rattus norvegicus, UniProt P31423); assay: accumulation of inositol phosphates in transfected HEK 293 cells expressing mGluR4a co-expressed with chimeric G protein; assay type: cell-based
T3 construct: expressed in transfected cells; host or cells: HEK 293
Description: as §1, §2, §3, §4, §5, §6

[1] = test system: ionotropic receptors (NMDA, AMPA and kainate receptors); assay: patch clamp recording of granule cells of the cerebellum; assay type: cell-based, mice; settings: ACPT 1 mM; NMDA or kainate 100 μM
Description: Culture and recording of the granule cells of the cerebellum
The granule cells of the cerebellum are cultured from 7 day-old baby mice as described by Van-Vliet, B. J., J. of Neurochemistry, 1989, .52, 1229-1239.
Recording is carried out using the technique known as a “patch clamp” in the full cell configuration and the molecules are applied using a rapid application technique.
Initially, tests were carried out in order to check whether the ACPT's were capable of activating or exercising an antagonist effect vis-à-vis the ionotropic receptors. These tests have shown that none of the ACPT enantiomers induces a current when they are placed in contact with the granule cells of the cerebellum at a concentration of 1 mM.
In the same batches, currents are on the contrary seen to be induced by NMDA (100 μM) or kainate (100 μM, which concentration allows activation of both the AMPA and kainate receptors), as envisaged given the activation of the NMDA and non-NMDA receptors.

T2 sequence (P31421 19-872): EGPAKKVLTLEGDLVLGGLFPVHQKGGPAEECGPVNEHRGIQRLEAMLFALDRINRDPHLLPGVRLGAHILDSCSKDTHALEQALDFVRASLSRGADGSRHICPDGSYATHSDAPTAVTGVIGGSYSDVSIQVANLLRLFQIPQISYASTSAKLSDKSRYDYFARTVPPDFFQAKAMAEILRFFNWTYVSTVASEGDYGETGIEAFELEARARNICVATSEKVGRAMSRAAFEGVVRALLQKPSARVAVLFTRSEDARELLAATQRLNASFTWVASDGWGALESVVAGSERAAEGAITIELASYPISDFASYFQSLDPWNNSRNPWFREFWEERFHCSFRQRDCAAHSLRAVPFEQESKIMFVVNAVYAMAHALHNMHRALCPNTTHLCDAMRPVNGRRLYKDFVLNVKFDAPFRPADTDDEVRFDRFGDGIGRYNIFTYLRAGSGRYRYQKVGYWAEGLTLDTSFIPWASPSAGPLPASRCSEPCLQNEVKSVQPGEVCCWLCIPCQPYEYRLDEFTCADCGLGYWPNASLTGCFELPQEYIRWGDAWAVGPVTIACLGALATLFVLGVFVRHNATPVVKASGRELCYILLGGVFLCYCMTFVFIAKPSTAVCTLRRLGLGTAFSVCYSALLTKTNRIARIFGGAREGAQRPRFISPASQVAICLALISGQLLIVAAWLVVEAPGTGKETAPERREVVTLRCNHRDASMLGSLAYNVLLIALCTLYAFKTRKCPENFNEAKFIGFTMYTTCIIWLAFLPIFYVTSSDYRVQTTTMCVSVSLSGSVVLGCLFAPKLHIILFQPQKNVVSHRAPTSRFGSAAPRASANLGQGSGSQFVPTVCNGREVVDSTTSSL
T1 sequence (P23385 19-1199): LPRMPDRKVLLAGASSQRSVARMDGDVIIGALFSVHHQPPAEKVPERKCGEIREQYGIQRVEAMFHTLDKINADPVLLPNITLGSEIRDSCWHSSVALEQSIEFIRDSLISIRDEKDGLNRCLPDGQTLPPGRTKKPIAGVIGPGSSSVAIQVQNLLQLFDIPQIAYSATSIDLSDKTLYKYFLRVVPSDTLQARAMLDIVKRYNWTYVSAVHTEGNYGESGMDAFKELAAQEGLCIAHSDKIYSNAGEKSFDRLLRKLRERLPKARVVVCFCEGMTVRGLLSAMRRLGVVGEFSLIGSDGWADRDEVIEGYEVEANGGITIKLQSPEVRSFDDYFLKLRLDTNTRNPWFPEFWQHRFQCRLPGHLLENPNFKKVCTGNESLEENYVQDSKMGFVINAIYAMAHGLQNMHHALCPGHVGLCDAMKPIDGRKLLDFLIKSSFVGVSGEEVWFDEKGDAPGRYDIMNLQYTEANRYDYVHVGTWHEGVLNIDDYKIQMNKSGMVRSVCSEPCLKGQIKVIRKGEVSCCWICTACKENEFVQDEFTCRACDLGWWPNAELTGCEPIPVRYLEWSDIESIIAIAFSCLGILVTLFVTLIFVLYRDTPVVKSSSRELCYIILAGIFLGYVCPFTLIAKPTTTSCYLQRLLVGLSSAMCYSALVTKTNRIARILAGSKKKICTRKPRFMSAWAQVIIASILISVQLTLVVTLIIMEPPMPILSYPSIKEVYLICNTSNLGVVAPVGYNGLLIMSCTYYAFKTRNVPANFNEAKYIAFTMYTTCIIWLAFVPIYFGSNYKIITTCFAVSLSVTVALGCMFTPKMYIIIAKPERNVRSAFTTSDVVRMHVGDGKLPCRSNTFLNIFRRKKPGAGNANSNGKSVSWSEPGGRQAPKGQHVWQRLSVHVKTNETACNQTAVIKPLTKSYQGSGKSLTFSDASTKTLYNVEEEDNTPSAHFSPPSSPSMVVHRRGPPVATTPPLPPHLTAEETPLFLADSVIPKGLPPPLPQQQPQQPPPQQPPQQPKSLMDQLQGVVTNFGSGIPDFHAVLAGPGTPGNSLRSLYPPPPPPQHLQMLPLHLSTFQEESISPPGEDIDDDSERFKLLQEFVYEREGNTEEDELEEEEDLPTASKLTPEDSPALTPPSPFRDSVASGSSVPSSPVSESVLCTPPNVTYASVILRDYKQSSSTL
T3 sequence (P31423 33-912): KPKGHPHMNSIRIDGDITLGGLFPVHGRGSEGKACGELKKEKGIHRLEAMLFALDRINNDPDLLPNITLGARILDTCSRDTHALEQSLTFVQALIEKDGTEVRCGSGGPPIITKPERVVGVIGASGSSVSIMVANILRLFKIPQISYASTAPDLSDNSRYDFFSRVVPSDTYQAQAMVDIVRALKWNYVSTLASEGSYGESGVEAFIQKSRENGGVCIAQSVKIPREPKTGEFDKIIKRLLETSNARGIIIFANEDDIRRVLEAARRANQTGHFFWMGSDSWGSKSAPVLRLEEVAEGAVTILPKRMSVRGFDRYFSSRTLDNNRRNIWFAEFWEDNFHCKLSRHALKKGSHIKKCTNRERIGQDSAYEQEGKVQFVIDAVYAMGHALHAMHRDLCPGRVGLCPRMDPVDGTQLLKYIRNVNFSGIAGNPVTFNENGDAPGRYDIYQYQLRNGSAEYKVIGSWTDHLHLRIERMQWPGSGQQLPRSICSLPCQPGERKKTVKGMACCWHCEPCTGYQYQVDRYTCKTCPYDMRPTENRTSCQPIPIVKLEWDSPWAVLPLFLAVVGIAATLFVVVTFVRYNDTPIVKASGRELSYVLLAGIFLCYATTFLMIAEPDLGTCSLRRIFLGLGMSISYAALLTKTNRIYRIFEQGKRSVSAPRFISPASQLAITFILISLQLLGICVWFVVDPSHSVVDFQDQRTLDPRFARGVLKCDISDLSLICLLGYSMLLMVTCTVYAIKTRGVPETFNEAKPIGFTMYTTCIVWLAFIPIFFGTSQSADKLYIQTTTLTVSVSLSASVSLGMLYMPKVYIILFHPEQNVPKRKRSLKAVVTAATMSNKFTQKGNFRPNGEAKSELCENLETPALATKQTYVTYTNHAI

## NC1(C(=O)O)CC(C(=O)O)C(C(=O)O)C1 (racemic) [(=)-ACPT-III, 1-amino-cyclopentane-1,3,4 tricarboxylic acid]
mGluR1a
  inhibition of the formation of IP induced by Glu in cells expressing mGluR1a, in words: inhibit the formation of the IP's induced by the Glu
mGluR1a; HEK 293 cells, IP accumulation induced by Glu, Shild representation, read-out: mGluR1a KB (antagonist effect)
  Kb: > 300 µM
mGluR1a; HEK 293 cells, IP accumulation, read-out: mGluR1a EC50 (agonist effect)
  EC50: > 3000 µM
mGluR2
  inhibition of the responses induced by Glu in cells expressing mGluR2, in words: inhibit the responses induced by Glu
mGluR2; HEK 293 cells, IP accumulation induced by Glu, Shild representation, read-out: mGluR2 KB (antagonist effect)
  Kb: > 300 µM
mGluR2; HEK 293 cells, IP accumulation, read-out: mGluR2 EC50 (agonist effect)
  EC50: > 3000 µM
mGluR4a; IP accumulation induced by Glu, Shild representation, read-out: mGluR4a KB (antagonist effect)
  Kb: > 3000 µM
mGluR4a; IP accumulation, read-out: mGluR4a EC50 (agonist effect)
  EC50: 40 ± 8 µM
[1]
  inhibition of responses induced by NMDA or kainate, in words: No significant inhibition
